Source: ChEMBL document CHEMBL1130434, “Simultaneous pharmacokinetic screening of a mixture of compounds in the dog using API LC/MS/MS analysis for increased throughput” (J Med Chem, 1997)

How the values were obtained:
[1] = Elimination half-life of compound when administered intravenously as an individual dose to a single dog.; format: ADME, organism-based; details: in vivo, iv
[2] = Steady-state volume of distribution of compound when administered intravenously as a mixture (five-in-one dose) to a single dog.; format: ADME, organism-based, Canis lupus familiaris; details: in vivo, iv, read-out: Vss
[3] = Clearance of compound when administered intravenously as a mixture (five-in-one dose) to a single dog.; format: ADME, organism-based, Canis lupus familiaris; details: in vivo, iv
[4] = Clearance of compound when administered intravenously as an individual dose to a single dog.; format: ADME, organism-based, Canis lupus familiaris; details: in vivo, iv
[5] = Steady-state volume of distribution of compound when administered intravenously as an individual dose to a single dog.; format: ADME, organism-based, Canis lupus familiaris; details: in vivo, iv, read-out: Vss
[6] = Elimination half-life of compound when administered intravenously as a mixture (five-in-one dose) to a single dog.; format: ADME, organism-based; details: in vivo, iv

| half-life [1] [h] | Vd [2] [L/kg] | clearance [3] [mL/min/kg] | clearance [4] [mL/min/kg] | Vd [5] [L/kg] | half-life [6] [h] | SMILES |
| --- | --- | --- | --- | --- | --- | --- |
| 2.1 | 2.76 | 17.3 | 28.9 | 3.46 | 2.4 | CNC(=O)CN(C)S(=O)(=O)c1cc(CCN2CCC(c3nc(COCC(F)(F)F)c(-c4ccccc4)o3)CC2)ccc1OC |
| 3.4 | 2.86 | 11.2 | 11.6 | 2.91 | 3 | CNC(=O)CN(C)S(=O)(=O)c1cc(CCN2CCC(c3nc(COCC(F)(F)F)c(-c4ccc(F)cc4)o3)CC2)ccc1OC |
| 4.2 | 0.33 | 0.86 | 0.9 | 0.243 | 4.9 | COc1ccc(CCN2CCC(c3nc(COCC(F)(F)F)c(-c4ccc(F)cc4)o3)CC2)cc1S(N)(=O)=O |
| 2.6 | 2.83 | 18.7 | 10.3 | 0.6 | 2.9 | COc1ccc(CCN2CCC(c3nc(COCC(F)(F)F)c(-c4ccccc4)o3)CC2)cc1S(=O)(=O)NCCNC(C)=O |
| 1.4 | 0.473 | 5.9 | 5 | 0.382 | 1.5 | COc1ccc(CCN2CCC(c3nc(COCC(F)(F)F)c(-c4ccccc4)o3)CC2)cc1S(N)(=O)=O |
